Measured values published in ChEMBL document CHEMBL1201862, “PubChem BioAssay data set” (2004).
Calls of active or inactive are those of the source.

Experiments:
[1] = molecular target: T1, Sentrin-specific protease 8 (Homo sapiens, UniProt Q96LD8); type: functional;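 further: luminescence read-out of SENP8 inhibition, dose-response confirmation following an ultra-high-throughput screen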
T1 sequence (Q96LD8 whole entry): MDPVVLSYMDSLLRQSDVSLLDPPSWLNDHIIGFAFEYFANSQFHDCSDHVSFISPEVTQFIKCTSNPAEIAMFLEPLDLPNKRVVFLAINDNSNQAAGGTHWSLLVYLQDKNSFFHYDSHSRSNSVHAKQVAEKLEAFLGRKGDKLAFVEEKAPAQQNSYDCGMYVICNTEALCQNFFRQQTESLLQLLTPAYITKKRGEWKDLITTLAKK

[2] = molecular target: T2, Caspase-3 (Homo sapiens, UniProt P42574); type: functional;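 further: Dose-response selectivity test against caspase-3 for candidate inhibitors of sentrin-specific proteases (SENPs)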
T2 sequence (P42574 whole entry): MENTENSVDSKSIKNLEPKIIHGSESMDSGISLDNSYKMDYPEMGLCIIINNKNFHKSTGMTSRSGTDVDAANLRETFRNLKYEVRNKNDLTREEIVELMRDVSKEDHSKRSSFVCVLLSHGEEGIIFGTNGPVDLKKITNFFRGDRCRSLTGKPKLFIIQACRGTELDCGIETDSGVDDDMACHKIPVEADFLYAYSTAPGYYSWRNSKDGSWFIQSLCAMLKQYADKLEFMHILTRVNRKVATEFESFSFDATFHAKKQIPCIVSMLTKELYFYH

[3] = molecular target: T3, Sentrin-specific protease 7 (Homo sapiens, UniProt Q9BQF6); type: functional;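 further: Luminescence-based dose-response confirmation of ultra-high-throughput screening hits, measuring inhibition of SENP7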
T3 sequence (Q9BQF6 whole entry): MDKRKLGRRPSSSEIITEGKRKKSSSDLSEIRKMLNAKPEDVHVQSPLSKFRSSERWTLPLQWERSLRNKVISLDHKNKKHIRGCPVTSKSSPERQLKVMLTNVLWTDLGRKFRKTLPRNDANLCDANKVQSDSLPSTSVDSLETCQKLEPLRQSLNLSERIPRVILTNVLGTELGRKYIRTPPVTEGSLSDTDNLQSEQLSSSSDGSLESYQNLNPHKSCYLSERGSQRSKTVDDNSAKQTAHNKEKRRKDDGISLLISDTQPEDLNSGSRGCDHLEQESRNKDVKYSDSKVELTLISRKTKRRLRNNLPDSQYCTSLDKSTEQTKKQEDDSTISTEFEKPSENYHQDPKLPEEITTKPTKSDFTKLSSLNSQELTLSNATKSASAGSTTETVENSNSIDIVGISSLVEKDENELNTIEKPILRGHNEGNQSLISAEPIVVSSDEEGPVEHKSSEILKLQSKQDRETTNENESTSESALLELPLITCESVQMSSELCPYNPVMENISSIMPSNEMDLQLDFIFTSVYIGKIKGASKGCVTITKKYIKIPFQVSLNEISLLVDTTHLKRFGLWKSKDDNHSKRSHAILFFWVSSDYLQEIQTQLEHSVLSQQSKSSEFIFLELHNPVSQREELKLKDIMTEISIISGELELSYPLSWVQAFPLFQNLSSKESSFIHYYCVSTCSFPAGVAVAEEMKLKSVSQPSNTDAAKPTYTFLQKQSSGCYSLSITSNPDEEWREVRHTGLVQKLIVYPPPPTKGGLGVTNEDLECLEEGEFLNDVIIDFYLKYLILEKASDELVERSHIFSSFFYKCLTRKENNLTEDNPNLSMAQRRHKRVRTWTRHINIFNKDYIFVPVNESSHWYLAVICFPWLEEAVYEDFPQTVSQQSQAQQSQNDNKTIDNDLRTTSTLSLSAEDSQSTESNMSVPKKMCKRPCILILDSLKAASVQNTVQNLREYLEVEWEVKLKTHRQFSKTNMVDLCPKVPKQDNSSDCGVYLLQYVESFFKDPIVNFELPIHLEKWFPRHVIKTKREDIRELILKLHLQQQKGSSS

[4] = system: HeLa; assay: HeLa cell cytotoxicity, dose response, cytotoxicity control for MITF activator project, CellTiter-Glo luminescence, cherry-pick samples (AID 540259); type: functional, cell-based; settings: Homo sapiens
[5] = molecular target: T4, Sentrin-specific protease 6 (Homo sapiens, UniProt Q9GZR1); type: functional;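 further: Luminescence-based dose-response confirmatory assay of SENP6 inhibition, following up an ultra-high-throughput screen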
T4 sequence (Q9GZR1 whole entry): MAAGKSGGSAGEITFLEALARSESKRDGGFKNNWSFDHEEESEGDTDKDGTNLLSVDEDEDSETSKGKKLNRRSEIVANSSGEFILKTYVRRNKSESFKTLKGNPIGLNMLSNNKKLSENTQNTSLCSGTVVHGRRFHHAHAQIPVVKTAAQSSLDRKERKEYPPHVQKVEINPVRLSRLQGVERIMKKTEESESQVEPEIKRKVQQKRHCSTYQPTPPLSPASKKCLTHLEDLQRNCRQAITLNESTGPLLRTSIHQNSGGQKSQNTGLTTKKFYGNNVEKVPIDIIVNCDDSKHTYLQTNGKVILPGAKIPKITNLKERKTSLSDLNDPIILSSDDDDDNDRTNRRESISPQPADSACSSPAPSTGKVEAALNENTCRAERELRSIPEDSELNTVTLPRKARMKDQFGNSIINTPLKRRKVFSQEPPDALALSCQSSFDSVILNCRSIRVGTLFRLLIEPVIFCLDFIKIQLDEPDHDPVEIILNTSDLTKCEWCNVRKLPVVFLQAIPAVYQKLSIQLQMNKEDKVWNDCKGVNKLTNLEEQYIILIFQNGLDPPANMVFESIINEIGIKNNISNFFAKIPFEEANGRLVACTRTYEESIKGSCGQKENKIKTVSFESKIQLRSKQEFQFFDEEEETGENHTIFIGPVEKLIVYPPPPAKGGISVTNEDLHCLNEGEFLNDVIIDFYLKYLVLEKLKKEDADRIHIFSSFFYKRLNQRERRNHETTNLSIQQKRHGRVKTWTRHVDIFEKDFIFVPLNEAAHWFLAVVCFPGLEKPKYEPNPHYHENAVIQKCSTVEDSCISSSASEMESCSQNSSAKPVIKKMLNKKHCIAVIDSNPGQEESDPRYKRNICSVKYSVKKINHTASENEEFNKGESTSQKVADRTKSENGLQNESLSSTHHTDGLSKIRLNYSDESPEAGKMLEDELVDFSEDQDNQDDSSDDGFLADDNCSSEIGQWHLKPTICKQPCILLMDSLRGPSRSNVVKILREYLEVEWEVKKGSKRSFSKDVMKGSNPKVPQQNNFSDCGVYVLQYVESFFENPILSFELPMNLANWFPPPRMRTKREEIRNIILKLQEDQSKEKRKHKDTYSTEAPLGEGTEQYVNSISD

[6] = system: HEK293; assay: inhibitors of LMP1-driven NF-kB reporter, dose response, cell-based, HEK293, luciferase, cherry-pick (AID 588343); type: functional; settings: Homo sapiens
[7] = cells; type: functional, cell-based
[8] = system: BJ; assay: cells; type: functional, cell-based; settings: Homo sapiens
[9] = system: BJ; assay: cytotoxicity toward BJ-TERT-LT-ST fibroblasts, dose response, cell-based, RAS-independent, luminescence (AID 1935); type: functional; settings: Homo sapiens;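 further: BJ fibroblasts immortalized with TERT plus LT and ST oncogenes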
[10] = system: BJ; assay: cytotoxicity toward BJ-TERT fibroblasts, dose response, cell-based, RAS-independent, luminescence (AID 1933); type: functional; settings: Homo sapiens
[11] = molecular target: T5, Latent membrane protein 1 (Human herpesvirus 4 (strain B95-8), UniProt P03230); assay: TES1-eGFP NF-kB reporter inhibition versus Tet-On dsRED, dose response, selectivity assay for LMP1 NF-kB inhibitor project, imaging, HEK293T, dual-color eGFP/dsRED, cherry-picks (AID 588398); type: functional, cell-based
T5 sequence (P03230 whole entry): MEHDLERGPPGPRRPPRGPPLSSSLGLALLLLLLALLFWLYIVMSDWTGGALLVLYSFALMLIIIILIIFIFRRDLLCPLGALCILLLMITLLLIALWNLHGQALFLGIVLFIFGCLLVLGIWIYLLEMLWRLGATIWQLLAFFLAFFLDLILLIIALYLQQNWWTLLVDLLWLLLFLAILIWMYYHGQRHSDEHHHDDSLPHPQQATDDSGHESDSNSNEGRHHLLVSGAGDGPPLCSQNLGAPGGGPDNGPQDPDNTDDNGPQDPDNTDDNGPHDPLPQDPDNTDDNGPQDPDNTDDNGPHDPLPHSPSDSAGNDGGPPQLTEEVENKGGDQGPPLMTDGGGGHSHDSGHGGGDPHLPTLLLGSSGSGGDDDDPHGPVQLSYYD

[12] = cytotoxicity toward DRD oncogenic fibroblasts, dose response, cell-based, non-viral oncogenic, luminescence (AID 1934); type: functional; settings: Homo sapiens
[13] = system: INS1; assay: beta cell apoptosis inhibitors, cytokine rescue, dose response, luminescence, retest (AID 449756); type: functional, cell-based; settings: Rattus norvegicus;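 further: cell death triggered by IL-1 beta plus TNF-alpha plus IFN-gamma mixture; protective hits raise ATP signal compared with cytokine alone wells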
[14] = system: Vero; assay: Vero cell cytotoxicity, cytotoxicity control for flavivirus capping enzyme inhibitors (AID 588742); type: functional; settings: Chlorocebus sabaeus
[15] = molecular target: Genome polyprotein (dengue virus type 2, UniProt P29990); assay: Dengue-2 NS5 methyltransferase inhibitors, primary screen, biochemical, confirmation dose response (AID 588689); type: functional
[16] = cytotoxicity toward NIH3T3 fibroblasts, dose response, counter-screen, cell-based, ATP luminescence, mouse fibroblasts (AID 2010); type: functional;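 further: cells exposed to compound for about 90 hours before reading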
[17] = inhibitors of intracellular T. cruzi replication, confirmation, NIH3T3 host cells, beta-gal luminescence (AID 2044); type: functional, cell-based;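 further: intracellular parasites grown in NIH/3T3 mouse fibroblasts as host cells; luminescent beta-galactosidase reporter signal from transgenic T. cruzi replicating inside host cells; inhibitors lower the luminescence signal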
[18] = molecular target: Protein Wnt-3a (Mus musculus, UniProt P27467); assay: Wnt3a-driven reporter signaling inhibition, dose response, selectivity assay for Gli-SUFU antagonist project, Wnt-LIGHT cells, luminescence (AID 651570); type: functional; settings: read-out: IC50_Mean;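 further: Wnt-LIGHT reporter cells stimulated with conditioned medium from Wnt3a-producing cells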
[19] = microbe, parasite or virus in culture; type: functional; settings: Mycobacterium tuberculosis
[20] = Shn3 3'UTR reporter inhibitors, dose response, cell-based, Clone20 osteoblasts, firefly luciferase, cherry-picked (AID 624132); type: functional;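 further: firefly luciferase luminescence from reporter carrying the Shn3 3'UTR in osteoblasts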
[21] = system: BJ; assay: cytotoxicity toward Ras-transformed BJeLR fibroblasts, dose response, cell-based, alamar blue fluorescence, cherrypicked samples (AID 2631); type: functional; settings: Homo sapiens;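 further: confirmatory dose-response assay in RAS-dependent BJ fibroblasts engineered with TERT, LT and ST, with cytotoxicity read by fluorescence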
[22] = HepG2 cell cytotoxicity, dose response, cytotoxicity control for Shn3 inhibitor project, CellTiter-Glo, cherry-picked (AID 624134); type: functional, cell-based
[23] = control 3'UTR Renilla luciferase suppression, dose response, counter-screen for Shn3 inhibitor project, cell-based, Clone20-Shn3RL, cherry-picked (AID 624133); type: functional
[24] = cytotoxicity in HEK-293T cells, dose response, cytotoxicity control for TCR NF-kB inhibitor project, luminescence, T-cell screen hits (AID 489026); type: functional, cell-based;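 further: cells exposed to compound about 14 hours before the viability readout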
[25] = inhibitors of SNCA 5'UTR-driven reporter translation, confirmation, H4 neuroglioma cells, luminescence (AID 1988); type: functional, cell-based
[26] = Luminescence Cell-Based Dose Response HTS to Identify Inhibitors of 5'UTR Stem-Loop Driven Prion Protein mRNA Translation in H4 Neuroglioblastoma Cells. [Related pubchem assays: 1827 (Project Summary), 1813 (Primary HTS)]; type: functional
[27] = inhibitors of firefly luciferase expression or activity, dose response, H4 neuroglioma cells, luminescence (AID 1990); type: functional, cell-based

Chain of Genome polyprotein (P29990 2492-3391 limits assumed): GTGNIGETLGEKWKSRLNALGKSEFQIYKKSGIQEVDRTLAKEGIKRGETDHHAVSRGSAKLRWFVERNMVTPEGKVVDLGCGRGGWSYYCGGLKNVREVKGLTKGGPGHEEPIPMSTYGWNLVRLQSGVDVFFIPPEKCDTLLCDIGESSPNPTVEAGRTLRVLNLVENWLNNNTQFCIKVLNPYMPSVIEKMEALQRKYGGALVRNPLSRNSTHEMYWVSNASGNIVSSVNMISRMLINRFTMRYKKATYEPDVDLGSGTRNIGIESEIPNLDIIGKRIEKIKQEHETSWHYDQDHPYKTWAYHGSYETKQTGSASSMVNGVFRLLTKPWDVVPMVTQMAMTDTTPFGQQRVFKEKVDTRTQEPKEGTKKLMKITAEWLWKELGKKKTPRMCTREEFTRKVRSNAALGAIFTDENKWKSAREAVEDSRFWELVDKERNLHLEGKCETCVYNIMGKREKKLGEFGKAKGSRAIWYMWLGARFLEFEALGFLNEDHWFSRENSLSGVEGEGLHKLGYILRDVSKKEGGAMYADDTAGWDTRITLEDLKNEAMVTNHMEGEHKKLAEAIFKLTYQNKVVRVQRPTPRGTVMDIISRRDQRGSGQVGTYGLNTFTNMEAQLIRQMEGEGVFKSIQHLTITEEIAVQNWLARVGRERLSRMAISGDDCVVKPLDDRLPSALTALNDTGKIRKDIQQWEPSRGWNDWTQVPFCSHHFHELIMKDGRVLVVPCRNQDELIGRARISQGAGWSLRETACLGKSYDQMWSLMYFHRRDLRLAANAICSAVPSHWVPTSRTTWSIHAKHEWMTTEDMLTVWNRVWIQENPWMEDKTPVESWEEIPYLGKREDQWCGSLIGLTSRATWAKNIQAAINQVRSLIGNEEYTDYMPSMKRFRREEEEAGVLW
Chain of Protein Wnt-3a (P27467 whole entry): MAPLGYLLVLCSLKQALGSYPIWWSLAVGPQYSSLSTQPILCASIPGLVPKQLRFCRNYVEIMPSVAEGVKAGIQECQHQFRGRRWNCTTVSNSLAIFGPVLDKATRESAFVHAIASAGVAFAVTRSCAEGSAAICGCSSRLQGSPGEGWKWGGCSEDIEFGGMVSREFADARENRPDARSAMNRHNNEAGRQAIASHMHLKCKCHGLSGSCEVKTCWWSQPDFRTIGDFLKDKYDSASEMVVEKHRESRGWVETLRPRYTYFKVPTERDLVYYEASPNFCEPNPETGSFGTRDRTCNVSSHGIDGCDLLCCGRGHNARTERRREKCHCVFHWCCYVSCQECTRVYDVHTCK

In the case of `CC(C)NC(=O)c1ccc2c3n(nc2c1)-c1ccc(Cl)cc1CO3`, the IC50 [1] is reported as 69.3 µM (active), the IC50 [2] is reported as 24 µM (active) and the IC50 [3] is reported as 18.4 µM (active). For the same compound, the AC50 [4] was 50.7 µM (active) and the IC50 [5] was 81.8 µM (active).

For `COc1ccc2[nH]c(C(=O)N/N=C/c3ccc(O)cc3O)cc2c1`, the AC50 [6] was 7.59 µM (active), the EC50 [7] was 9.59 µM (active) and the EC50 [8] was 10.8 µM (active). The EC50 [9] was 10.1 µM (inconclusive), the EC50 [10] was 12.2 µM (active) and the AC50 [11] was 20.3 µM (active). The EC50 [12] was 9.2 µM (inconclusive) and the AC50 [13] was 694 nM (active).

For `O=C(c1ccccc1)c1ccc(O)c(O)c1O`, the CC50 [14] was > 40 µM (active) and the IC50 [15] was 57.7 µM (active).

In the case of `Cc1ccc2c(c1)S/C(=C/c1ccc[n+](C)c1)N2CCO`, the EC50 [16] is reported as > 60 µM (not active), the EC50 [17] is reported as 1.16 µM (active) and the IC50 [18] is reported as 26.7 µM (inactive). For the same compound, the AC50 [13] was 3770 nM (active).

With `COc1cc(C2c3cc4c(cc3C(OC3OC5COC(c6cccs6)OC5C(O)C3O)C3COC(=O)C23)OCO4)cc(OC)c1O` (configuration not stated) the EC50 [8] was 5.79 µM (inconclusive), the EC50 [9] was 4.24 µM (active) and the EC50 [10] was 6.51 µM (inconclusive). The CC50 [19] was 16.5 µM (active), the AC50 [20] was 1.11 µM (active) and the EC50 [21] was 428 nM (active). For the same compound, the AC50 [22] was 14.3 µM (active), the AC50 [23] was 1.28 µM (active) and the IC50 [24] was > 80 µM (inactive). For the same compound, the EC50 [12] was 8.49 µM (inconclusive), the EC50 [25] was < 100 nM (active) and the EC50 [26] was 15.5 µM (active). The EC50 [27] was 5.15 µM (active).
